Experiments:
system Xc^− [1] = biological target: T1, system Xc^− (Homo sapiens, UniProt Q9UPY5); assay: Cystine-induced glutamate release assay; assay type: cell-based; parameters: endogenous in cells; host or cells: H4 cells; conditions: H4 cells, sodium-free HEPES buffer, 50 μM L-Cystine, 2 hours, Amplex Red glutamate readout; for IC50: read-out: pIC50 Cystine-induced glutamate release assay (converted)
T1 sequence (Q9UPY5 1-501): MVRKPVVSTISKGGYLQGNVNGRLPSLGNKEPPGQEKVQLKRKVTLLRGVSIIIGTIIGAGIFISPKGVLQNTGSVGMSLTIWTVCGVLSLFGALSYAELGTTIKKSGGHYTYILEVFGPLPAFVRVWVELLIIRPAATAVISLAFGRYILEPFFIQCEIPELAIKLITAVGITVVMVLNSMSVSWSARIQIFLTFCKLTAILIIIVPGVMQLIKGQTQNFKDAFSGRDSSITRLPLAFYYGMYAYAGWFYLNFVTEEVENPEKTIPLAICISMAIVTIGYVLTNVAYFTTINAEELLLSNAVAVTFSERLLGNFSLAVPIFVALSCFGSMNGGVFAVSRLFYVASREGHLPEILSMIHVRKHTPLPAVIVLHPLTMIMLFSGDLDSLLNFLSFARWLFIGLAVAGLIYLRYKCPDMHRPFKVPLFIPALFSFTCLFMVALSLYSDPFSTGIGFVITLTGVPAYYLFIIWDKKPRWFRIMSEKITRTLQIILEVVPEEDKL
T1 sequence (P08195 1-529 partner): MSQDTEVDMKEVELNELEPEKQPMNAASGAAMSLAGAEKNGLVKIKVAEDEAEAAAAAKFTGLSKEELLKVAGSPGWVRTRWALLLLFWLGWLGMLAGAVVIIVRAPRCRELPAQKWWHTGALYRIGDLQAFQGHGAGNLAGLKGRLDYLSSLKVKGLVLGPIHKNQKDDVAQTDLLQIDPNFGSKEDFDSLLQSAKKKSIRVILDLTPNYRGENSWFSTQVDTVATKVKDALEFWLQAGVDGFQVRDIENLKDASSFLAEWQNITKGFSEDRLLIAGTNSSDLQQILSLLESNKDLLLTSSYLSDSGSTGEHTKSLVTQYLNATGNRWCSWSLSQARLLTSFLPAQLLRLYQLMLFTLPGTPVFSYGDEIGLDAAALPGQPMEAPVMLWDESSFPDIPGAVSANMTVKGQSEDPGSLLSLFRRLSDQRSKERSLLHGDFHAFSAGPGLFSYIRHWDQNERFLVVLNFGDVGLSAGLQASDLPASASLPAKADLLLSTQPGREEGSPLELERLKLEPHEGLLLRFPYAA
Description: (§1) The effect of compounds of Formula (I) on the system Xc^− functionality was examined in two independent cell assays: (i) measurement of cystine-induced glutamate release; and (ii) measurement of [^14C]L-Cystine uptake.
(§2) As described above, System Xc^−, also known as the cystine/glutamate antiporter, is an amino acid transporter that mediates the extrusion of intracellular L-glutamate outside the cell and the uptake of extracellular L-cystine into the cell.
(§3) By measuring respectively, the concentration of glutamate released outside the cell and the L-cystine uptaken in the cell, with increasing concentrations of compounds of formula (I) according to the present invention, the efficacy of said compounds to inhibit the System Xc^− function can be evaluated.
(§4) The efficacy of the compounds to inhibit system Xc^− is represented by measuring the IC50 which corresponds to the concentration of compound necessary to inhibit 50% of the signals from the two control groups; DMSO 1% and Erastin 50 μM in the respective assays. pIC50 values correspond to −log of the IC50 in Molar.
Measurement of cystine-induced glutamate release indicates levels of glutamate (outside of the cell) that are dependent on system Xc^− antiporter function. Upon the addition of L-Cystine to H4 cells, intracellular glutamate is counter-transported and exported in the supernatant.
In this assay, the medium is devoid of sodium to prevent the transport of glutamate by sodium-dependent excitatory amino acid transporters (EAATs). H4 cells were plated on 384-well culture plate at 1×10^4 cells/well in Dulbecco's Modified Eagle Medium (DMEM) with L-glutamine, penicillin/streptomycin and 10% fetal bovine serum (all from ThermoFisher Scientific) and incubated in a humidified CO2 incubator at 37° C. After 2 days, cells were washed 4 times with prewarmed sodium-free HEPES buffer (contents in mM: HEPES 10, KCl 5.4, CaCl2 2.5, MgCl2 1, KH2PO4 0.4, D-Glucose 5, Choline chloride 140), pH 7.4. Glutamate release was induced by addition of 50 μM of L-Cystine (Sigma-Aldrich), together with a test compound of Formula (I) at 1% final DMSO concentration. After 2 hours of incubation in the culture incubator, supernatants were transferred to a low-binding polypropylene 384-well plate to determine L-glutamate concentration using Amplex™ Red Glutamic Acid Assay Kit (ThermoFisher Scientific). Briefly, 10 μL of Amplex™ Red working solution was added to 10 μL of the supernatant, then the mixture was incubated for 30 min at 37° C. Fluorescence intensity was measured by EnVision microplate reader (PerkinElmer).

system Xc^− [2] = biological target: T1, system Xc^−; assay: [^14C]L-Cystine uptake assay; assay type: cell-based; parameters: endogenous in cells; host or cells: H4 cells; conditions: H4 cells, sodium-free HEPES buffer, 0.5 μM L-[14C]Cystine and 4.5 μM L-Cystine, 1 hour at 37° C.; for IC50: read-out: pIC50 [^14C] L-Cystine uptake assay (converted)
Description: as §1, §2, §3, §4
In this assay, the medium is devoid of sodium to prevent the transport of glutamate by sodium-dependent excitatory amino acid transporters (EAATs). H4 cells were plated on a 96-well CytoStar-T scintillating microplate (PerkinElmer) at 5×10^4 cells/well in the medium described above. After 1 day, cells were washed one time with the sodium-free HEPES buffer and preincubated with test compounds of Formula (I) (1% final DMSO) for 15 min. Uptake was initiated by adding 0.5 μM L-[1,2, 1′,2′-^14C]Cystine (0.02 mCi/mL, PerkinElmer, Waltham, US) and 4.5 μM L-Cystine (Sigma-Aldrich). After 1 hour at 37° C., plates were counted in a MicroBeta^2 microplate counter (PerkinElmer).

IC50 (system Xc^− [1]) [nM]	IC50 (system Xc^− [2]) [nM]	Compound	pIC50 Cystine-induced glutamate release assay (system Xc^− [1])	pIC50 [^14C] L-Cystine uptake assay (system Xc^− [2])
< 15.8	< 15.8	Cc1cc2c(c(=O)n1C)-c1cccnc1[C@@H](C)C(=O)N2CC(=O)Nc1ccc(C(F)(F)F)cc1 (single isomer, unassigned) [#178, Enantiomer (10R) or (10S) of N-[4-(trifluoromethyl)phenyl]-2-[4,5,10-trimethyl-3,9-dioxo-4,8,12-triazatricyclo[9.4.0.0^2,7]pentadeca-1(15),2(7),5,11,13-pentaen-8-yl]acetamide]	–	–
15.8 to 39.8	< 15.8	CC1C(=O)N(CC(=O)Nc2ccc(C(F)(F)F)cc2)c2cn(C)c(=O)c(F)c2-c2cccnc21 (single isomer, unassigned) [#184, enantiomer (10R) or (10S) of 2-(3-fluoro-5,10-dimethyl-4,9-dioxo-5,8,12-triazatricyclo[9.4.0.0^2,7]pentadeca-1(11),2,6,12,14-pentaen-8-yl)-N-[4-(trifluoromethyl)phenyl]acetamide]	–	–
15.8 to 39.8	39.8 to 100	Cc1cc2c(cn1)-c1ccnn1C(C)C(=O)N2CC(=O)Nc1ccc(Cl)c(F)c1 (single isomer, unassigned) [#186, enantiomer (7S) or (7R) of N-(4-chloro-3-fluoro-phenyl)-2-[7,12-dimethyl-8-oxo-5,6,9,13-tetrazatricyclo[8.4.0.0^2,6]tetradeca-1(10),2,4,11,13-pentaen-9-yl]acetamide]	–	–
39.8 to 100	15.8 to 39.8	CC1C(=O)N(CC(=O)Nc2ccc(C(F)(F)F)cc2)c2ccnc(F)c2-c2cccnc21 (single isomer, unassigned) [#187, enantiomer (10R) or (10S) of 2-[3-fluoro-10-methyl-9-oxo-4,8,12-triazatricyclo[9.4.0.0^2,7]pentadeca-1(11),2(7),3,5,12,14-hexaen-8-yl]-N-[4-(trifluoromethyl)phenyl]acetamide]	–	–
< 15.8	< 15.8	Cc1cc2c(c(Cl)n1)-c1cccnc1C(F)C(=O)N2CC(=O)Nc1ccc(C(F)(F)F)cc1 (single isomer, unassigned) [#188, enantiomer (10R) or (10S) of 2-[3-chloro-10-fluoro-5-methyl-9-oxo-4,8,12-triazatricyclo[9.4.0.0^2,7]pentadeca-1(11),2(7),3,5,12,14-hexaen-8-yl]-N-[4-(trifluoromethyl)phenyl]acetamide]	–	–
100 to 501	39.8 to 100	Cc1cc2c(c(F)n1)-c1cccnc1[C@H](C)C(=O)N2CC(=O)Nc1ccc(C(F)(F)F)cc1 (single isomer, unassigned) [#191]	–	–
< 15.8	< 15.8	Cc1cc2c(c(F)n1)-c1cccnc1[C@@H](C)C(=O)N2CC(=O)Nc1ccc(C(F)(F)F)cc1 (single isomer, unassigned) [#192]	–	–
< 15.8	< 15.8	Cc1cc2c(c(F)n1)-c1cccnc1[C@@H](F)C(=O)N2CC(=O)Nc1ccc(C(F)(F)F)cc1 (single isomer, unassigned) [#195, Enantiomer (10R) or (10S) of 2-(3,10-difluoro-5-methyl-9-oxo-4,8,12-triazatricyclo[9.4.0.0^2,7]pentadeca-1(11),2(7),3,5,12,14-hexaen-8-yl)-N-[4-(trifluoromethyl)phenyl]acetamide]	–	–

More lines, now with the values behind:

Compound	IC50 (system Xc^− [1]) [nM]	IC50 (system Xc^− [2]) [nM]	pIC50 Cystine-induced glutamate release assay (system Xc^− [1])	pIC50 [^14C] L-Cystine uptake assay (system Xc^− [2])
CCn1c(C)cc2c(c1=O)-c1cccnc1[C@@H](C)C(=O)N2CC(=O)Nc1ccc(Cl)c(F)c1 (single isomer, unassigned) [#176, Enantiomer (10R) or (10S) of N-(4-chloro-3-fluoro-phenyl)-2-[4-ethyl-5,10-dimethyl-3,9-dioxo-4,8,12-triazatricyclo[9.4.0.0^2,7]pentadeca-1(15),2(7),5,11,13-pentaen-8-yl]acetamide]	< 15.8	< 15.8	–	–
Cc1cc2c(c(=O)n1C)-c1cccnc1[C@@H](C)C(=O)N2CC(=O)Nc1ccc(C(F)F)cc1 (single isomer, unassigned) [#177, Enantiomer (10R) or (10S) of N-[4-(difluoromethyl)phenyl]-2-[4,5,10-trimethyl-3,9-dioxo-4,8,12-triazatricyclo[9.4.0.0^2,7]pentadeca-1(11),2(7),5,12,14-pentaen-8-yl]acetamide]	< 15.8	< 15.8	–	–
Cc1cc2c(c(Cl)n1)-c1ccccc1CC(=O)N2CC(=O)Nc1ccc(C(F)(F)F)cc1 (single isomer, unassigned) [#189, Atropisomer aR or aS of 2-(1-chloro-3-methyl-6-oxo-7H-pyrido[4,3-d][3]benzazepin-5-yl)-N-[4-(trifluoromethyl)phenyl]acetamide]	–	–	D (plC50 > about 7.80)	D (plC50 > about 7.80)
Cc1cc2c(c(Cl)n1)-c1ccccc1CC(=O)N2CC(=O)Nc1ccc(C(F)(F)F)cc1 (single isomer, unassigned) [#190, Atropisomer aS or aR of 2-(1-chloro-3-methyl-6-oxo-7H-pyrido[4,3-d][3]benzazepin-5-yl)-N-[4-(trifluoromethyl)phenyl]acetamide]	–	–	A (about 6.3 ≤ pIC50 ≤ about 7.00)	B (about 7.00 < pIC50 ≤ about 7.40)
O=C(CN1C(=O)Cc2cc(F)ccc2-c2c1ccnc2Cl)Nc1ccc(C(F)(F)F)cc1 (single isomer, unassigned) [#193, Atropisomer aR or aS of 2-(1-chloro-9-fluoro-6-oxo-7H-pyrido[4,3-d][3]benzazepin-5-yl)-N-[4-(trifluoromethyl)phenyl]acetamide]	–	–	C (about 7.40 < pIC50 ≤ about 7.80)	D (plC50 > about 7.80)
Cc1cc2c(c(C(F)F)n1)-c1ccccc1CC(=O)N2CC(=O)Nc1ccc(C(F)(F)F)cc1 (single isomer, unassigned) [#194, Atropisomer aR or aS of 2-[1-(difluoromethyl)-3-methyl-6-oxo-7H-pyrido[4,3-d][3]benzazepin-5-yl]-N-[4-(trifluoromethyl)phenyl]acetamide]	–	–	C (about 7.40 < pIC50 ≤ about 7.80)	D (plC50 > about 7.80)

Reference: patent publication US20260217708A1, “FUSED BENZAZEPINE DERIVATIVES FOR USE IN THE TREATMENT OF CANCER AND EPILEPSY” (UCB BIOPHARMA SRL, priority 2023, published 2026)
